# Experimental data taken from ChEMBL document CHEMBL2062440, “Isolation of spirastrellolides A and B from a marine sponge Epipolasis sp. and their cytotoxic activities” (J Nat Prod, 2012).
# System: HeLa
# Assay: Cytotoxicity against human HeLa cells after 72 hrs by MTT assay
# Type: functional, cell-based
row,Structure (SMILES),IC50 [nM]
1,CO[C@H]1CC[C@]23C=C[C@H](C)[C@@H](C[C@@H](O)C[C@H](O)C[C@@H]4CCC[C@H](CC(=O)O[C@H]5C[C@@]6(O[C@H]5C/C=C/C/C=C\C[C@@H](O)C(=O)O)O[C@]5(CC[C@@H]6C)C[C@@H](OC)[C@H](Cl)[C@@H](CC[C@H](C)[C@H](O)[C@H](O)[C@H]1O2)O5)O4)O3 [SPIRASTRELLOLIDE A],20
2,CO[C@H]1C[C@H]2CC[C@H](C)[C@H](O)[C@H](O)[C@H]3O[C@]4(CC[C@@H]3OC)CC[C@H](C)[C@@H](C[C@@H](O)C[C@H](O)C[C@@H]3CCC[C@H](CC(=O)O[C@H]5C[C@@]6(O[C@H]5C/C=C/C/C=C\C[C@@H](O)C(=O)O)O[C@](CC[C@@H]6C)(C1)O2)O3)O4 [SPIRASTRELLOLIDE B],40
3,COC(=O)[C@H](O)C/C=C\C/C=C/C[C@@H]1O[C@@]23C[C@@H]1OC(=O)C[C@H]1CCC[C@@H](C[C@@H](O)C[C@H](O)C[C@H]4O[C@@]5(CC[C@H](OC)[C@H](O5)[C@@H](O)[C@@H](O)[C@@H](C)CC[C@@H]5C[C@H](OC)C[C@](CC[C@@H]2C)(O5)O3)CC[C@@H]4C)O1 [SPIRASTRELLOLIDE B METHYL ESTER],70
4,COC(=O)[C@H](O)C/C=C\C/C=C/C[C@@H]1O[C@@]23C[C@@H]1OC(=O)C[C@H]1CCC[C@@H](C[C@@H](O)C[C@H](O)C[C@H]4O[C@]5(C=C[C@@H]4C)CC[C@H](OC)[C@H](O5)[C@@H](O)[C@@H](O)[C@@H](C)CC[C@H]4O[C@@](CC[C@@H]2C)(C[C@@H](OC)[C@@H]4Cl)O3)O1 [SPIRASTRELLOLIDE A METHYL ESTER],30
